Data taken from patent US20250144067A1, “PERSONALIZED STARVATION THERAPY FOR CANCER” (Faeth Therapeutics, Inc., priority 2021, published 2025).
Structures can show the parent of a compound that is named as a salt.

Key:
[1] = test system: NCI-H292 lung cancer cells; test: FDA drug screening, complete media vs cholesterol-free media without statin (TABLE 1); type: cell-based, human
[2] = test system: NCI-H292 lung cancer cells; test: FDA drug screening, complete media vs cholesterol-free media with simvastatin (TABLE 2); type: cell-based, human; details: for Cholesterol-free media + simvastatin (0.04 μM) / Complete Media: NCI-H292 cells
[3] = Complete minus Cholesterol-free, greater than 0 enhanced anti-cancer activity, about 0 neutral, below 0 antagonist
[4] = NCI-H292 cells, FDA drug library screen, cholesterol-free media without statin
[5] = NCI-H292 cells, FDA drug library screen, complete media
[6] = FDA drug library screen, cholesterol-free media with simvastatin 0.04 μM
[7] = FDA drug library screen, complete media
[8] = complete media vs cholesterol-free media + simvastatin (0.04 μM), >0 enhanced anti-cancer activity, about 0 neutral, <0 antagonist
[9] = Complete minus Cholesterol-free, >0 enhanced anti-cancer activity, about 0 neutral, <0 antagonist
[10] = NCI-H292 cells, cholesterol-free media without statin, FDA drug library screen
[11] = NCI-H292 cells, complete media, FDA drug library screen
[12] = cholesterol-free media with simvastatin 0.04 μM, FDA drug library screen (TABLE 2)
[13] = complete media, FDA drug library screen (TABLE 2)
[14] = complete media minus cholesterol-free media + simvastatin (0.04 μM), >0 enhanced anti-cancer activity, about 0 neutral, <0 antagonist
[15] = complete vs cholesterol-free media, >0 enhanced anti-cancer activity, about 0 neutral, <0 antagonist
[16] = NCI-H292 cells, cholesterol-free media without statin
[17] = FDA library drug in cholesterol-free media with simvastatin 0.04 μM
[18] = FDA library drug in complete media
[19] = complete vs cholesterol-free media, greater than 0 enhanced anti-cancer activity, about 0 neutral, below 0 antagonists
[20] = cholesterol-free media with simvastatin 0.04 μM, cell growth value in FDA drug screen
[21] = complete media, cell growth value in FDA drug screen
[22] = complete media minus cholesterol-free media + simvastatin, >0 enhanced anti-cancer activity, about 0 neutral, <0 antagonist
[23] = drug in cholesterol-free media with simvastatin 0.04 μM

CS(=O)(=O)c1ccc([C@@H](O)[C@@H](CF)NC(=O)C(Cl)Cl)cc1 [Florfenicol]
Difference [1, 3]: −0.13
Cholesterol-free [1, 4]: 0.8542
Complete [1, 5]: 0.7262
Cholesterol-free media + simvastatin (0.04 μM) [2, 6]: 1.137
Complete Media [2, 7]: 0.997
Difference [2, 8]: −0.14

O=c1[nH]c(=O)n([C@H]2C[C@H](O)[C@@H](CO)O2)cc1F [Floxuridine]
Difference [1, 9]: −0.01
Cholesterol-free [1, 10]: 0.09159
Complete [1, 11]: 0.08047
Cholesterol-free media + simvastatin (0.04 μM) [2, 12]: 0.09098
Complete Media [2, 13]: 0.02907
Difference [2, 14]: −0.06

COC(=O)Nc1nc2cc(C(=O)c3ccc(F)cc3)ccc2[nH]1 [Flubendazole]
Cholesterol-free [1, 10]: 0.549
Complete [1, 11]: 1.107
Difference [1, 15]: 0.56
Cholesterol-free media + simvastatin (0.04 μM) [2, 12]: 1.122
Complete Media [2, 13]: 1.079
Difference [2, 14]: −0.04

Cc1onc(-c2c(F)cccc2Cl)c1C(=O)N[C@@H]1C(=O)N2[C@@H]1SC(C)(C)[C@@H]2C(=O)O [Flucloxacillin sodium]
Difference [1, 9]: −0.29
Cholesterol-free [1, 16]: 1.264
Complete ([1]; NCI-H292 cells, complete media): 0.9693
Cholesterol-free media + simvastatin (0.04 μM) [2, 17]: 1.127
Complete Media [2, 18]: 0.8297
Difference [2, 8]: −0.30

OC(Cn1cncn1)(Cn1cncn1)c1ccc(F)cc1F [Fluconazole]
Cholesterol-free [1, 16]: 1.23
Complete ([1]; NCI-H292 cells, complete media): 0.8337
Difference [1, 19]: −0.40
Cholesterol-free media + simvastatin (0.04 μM) [2, 17]: 1.268
Complete Media [2, 18]: 0.9392
Difference [2, 8]: −0.33

Nc1[nH]c(=O)ncc1F [Flucytosine]
Cholesterol-free [1, 16]: 1.247
Complete ([1]; NCI-H292 cells, complete media): 0.8456
Difference [1, 19]: −0.40
Cholesterol-free media + simvastatin (0.04 μM) [2, 17]: 1.754
Complete Media [2, 18]: 1.475
Difference [2, 8]: −0.28

Nc1nc(F)nc2c1ncn2[C@@H]1O[C@H](CO)[C@@H](O)[C@@H]1O [Fludarabine]
Difference ([1]; Complete minus Cholesterol-free, […]): −0.15
Cholesterol-free [1, 4]: 1.174
Complete [1, 5]: 1.022
Cholesterol-free media + simvastatin (0.04 μM) [2, 12]: 1.255
Complete Media [2, 13]: 1.187
Difference ([2]; complete media minus cholesterol-free media + simvastatin (0.04 μM), […]): −0.07

CC(=O)OCC(=O)[C@@]1(O)CC[C@H]2[C@@H]3CCC4=CC(=O)CC[C@]4(C)[C@@]3(F)[C@@H](O)C[C@@]21C [Fludrocortisone acetate]
Difference [1, 9]: −0.30
Cholesterol-free [1, 16]: 0.7353
Complete ([1]; NCI-H292 cells, complete media): 0.437
Cholesterol-free media + simvastatin (0.04 μM) [2, 20]: 0.45
Complete Media [2, 21]: 0.5624
Difference [2, 22]: 0.11

O=C(O)c1ccccc1Nc1cccc(C(F)(F)F)c1 [Flufenamic acid]
Difference [1, 9]: −0.24
Cholesterol-free [1, 16]: 1.258
Complete ([1]; NCI-H292 cells, complete media): 1.021
Cholesterol-free media + simvastatin (0.04 μM) [2, 23]: 1.298
Complete Media ([2]; drug in complete media): 1.077
Difference [2, 8]: −0.22

CCOC(=O)c1ncn2c1CN(C)C(=O)c1cc(F)ccc1-2 [Flumazenil]
Difference [1, 9]: 0.05
Cholesterol-free [1, 10]: 1.073
Complete [1, 11]: 1.128
Cholesterol-free media + simvastatin (0.04 μM) [2, 17]: 1.268
Complete Media [2, 18]: 0.8397
Difference [2, 8]: −0.43

Fc1ccc(C(c2ccc(F)cc2)N2CCN(C/C=C/c3ccccc3)CC2)cc1 [Flunarizine (dihydrochloride)]
Difference [1, 9]: 0.07
Cholesterol-free [1, 10]: 0.971
Complete [1, 11]: 1.036
Cholesterol-free media + simvastatin (0.04 μM) [2, 20]: 0.8172
Complete Media [2, 21]: 0.8617
Difference [2, 22]: 0.04

CC1(C)O[C@@H]2C[C@H]3[C@@H]4C[C@H](F)C5=CC(=O)C=C[C@]5(C)[C@H]4[C@@H](O)C[C@]3(C)[C@]2(C(=O)CO)O1 [Flunisolide]
Difference [1, 9]: −0.06
Cholesterol-free [1, 10]: 0.8546
Complete [1, 11]: 0.7935
Cholesterol-free media + simvastatin (0.04 μM) [2, 20]: 0.5373
Complete Media [2, 21]: 0.6048
Difference [2, 22]: 0.07

CC1(C)O[C@@H]2C[C@H]3[C@@H]4C[C@H](F)C5=CC(=O)C=C[C@]5(C)[C@@]4(F)[C@@H](O)C[C@]3(C)[C@]2(C(=O)CO)O1 [Fluocinolone (Acetonide)]
Difference [1, 9]: 0.01
Cholesterol-free [1, 10]: 0.5523
Complete [1, 11]: 0.5617
Cholesterol-free media + simvastatin (0.04 μM) [2, 23]: 0.6444
Complete Media ([2]; drug in complete media): 0.4689
Difference [2, 8]: −0.18

CC(=O)OCC(=O)[C@@]12OC(C)(C)O[C@@H]1C[C@H]1[C@@H]3C[C@H](F)C4=CC(=O)C=C[C@]4(C)[C@@]3(F)[C@@H](O)C[C@@]12C [Fluocinonide]
Difference [1, 9]: −0.04
Cholesterol-free [1, 10]: 0.5848
Complete [1, 11]: 0.544
Cholesterol-free media + simvastatin (0.04 μM) [2, 6]: 0.6998
Complete Media [2, 7]: 0.898
Difference [2, 22]: 0.20

O=C1OC2(c3ccc(O)cc3Oc3cc(O)ccc32)c2ccccc21 [Fluorescein]
Cholesterol-free [1, 16]: 1.153
Complete ([1]; NCI-H292 cells, complete media): 0.6958
Difference [1, 19]: −0.46
Cholesterol-free media + simvastatin (0.04 μM) [2, 23]: 1.054
Complete Media ([2]; drug in complete media): 0.8464
Difference [2, 8]: −0.21

CC(=O)O[C@]1(C(C)=O)CC[C@H]2[C@@H]3C[C@H](C)C4=CC(=O)C=C[C@]4(C)[C@@]3(F)[C@@H](O)C[C@@]21C [Fluorometholone acetate]
Cholesterol-free [1, 16]: 0.9866
Complete ([1]; NCI-H292 cells, complete media): 0.5758
Difference [1, 19]: −0.41
Cholesterol-free media + simvastatin (0.04 μM) [2, 6]: 0.6176
Complete Media [2, 7]: 0.9441
Difference [2, 22]: 0.33

CC(=O)[C@@]1(O)CC[C@H]2[C@@H]3C[C@H](C)C4=CC(=O)C=C[C@]4(C)[C@@]3(F)[C@@H](O)C[C@@]21C [Fluorometholone]
Difference [1, 3]: −0.08
Cholesterol-free [1, 4]: 1.249
Cholesterol-free media + simvastatin (0.04 μM) [2, 23]: 0.7423
Complete Media ([2]; drug in complete media): 0.5602
Difference [2, 8]: −0.18

CNCCC(Oc1ccc(C(F)(F)F)cc1)c1ccccc1 (centres unmarked) [Fluoxetine (hydrochloride)]
Cholesterol-free [1, 16]: 1.383
Complete ([1]; NCI-H292 cells, complete media): 0.9864
Difference [1, 19]: −0.40
Cholesterol-free media + simvastatin (0.04 μM) [2, 6]: 0.8887
Complete Media [2, 7]: 1.043
Difference [2, 22]: 0.15

CCCCCCCCCC(=O)OCCN1CCN(CCCN2c3ccccc3Sc3ccc(C(F)(F)F)cc32)CC1 [Fluphenazine decanoate]
Cholesterol-free [1, 10]: 0.4638
Complete [1, 11]: 1.069
Difference [1, 15]: 0.60
Cholesterol-free media + simvastatin (0.04 μM) [2, 6]: 0.7434
Complete Media [2, 7]: 0.9759
Difference [2, 22]: 0.23

Cc1cc(C2=NOC(c3cc(Cl)cc(Cl)c3)(C(F)(F)F)C2)ccc1C(=O)NCC(=O)NCC(F)(F)F (centres unmarked) [Fluralaner]
Cholesterol-free [1, 10]: 0.6434
Complete [1, 11]: 1.375
Difference ([1]; complete vs cholesterol-free media, […]): 0.73
Cholesterol-free media + simvastatin (0.04 μM) [2, 23]: 1.609
Complete Media ([2]; drug in complete media): 1.41
Difference ([2]; complete media vs cholesterol-free media + simvastatin (0.04 μM), […]): −0.20

CC(C(=O)O)c1ccc(-c2ccccc2)c(F)c1 (centres unmarked) [Flurbiprofen]
Cholesterol-free [1, 10]: 1.072
Complete [1, 11]: 1.387
Difference [1, 15]: 0.31
Cholesterol-free media + simvastatin (0.04 μM) [2, 23]: 1.217
Complete Media ([2]; drug in complete media): 1.042
Difference [2, 8]: −0.18

O=C1NCN(c2ccccc2)C12CCN(CCCC(c1ccc(F)cc1)c1ccc(F)cc1)CC2 [Fluspirilene]
Cholesterol-free [1, 16]: 1.319
Complete ([1]; NCI-H292 cells, complete media): 0.9067
Difference [1, 19]: −0.41
Cholesterol-free media + simvastatin (0.04 μM) [2, 12]: 1.267
Complete Media [2, 13]: 1.241
Difference [2, 14]: −0.03

CC(C)C(=O)Nc1ccc([N+](=O)[O-])c(C(F)(F)F)c1 [Flutamide]
Difference [1, 9]: −0.27
Cholesterol-free [1, 16]: 1.049
Complete ([1]; NCI-H292 cells, complete media): 0.7826
Cholesterol-free media + simvastatin (0.04 μM) [2, 12]: 0.8786
Complete Media [2, 13]: 0.855
Difference [2, 14]: −0.02

CCC(=O)O[C@]1(C(=O)SCF)[C@H](C)C[C@H]2[C@@H]3C[C@H](F)C4=CC(=O)C=C[C@]4(C)[C@@]3(F)[C@@H](O)C[C@@]21C [Fluticasone (propionate)]
Difference ([1]; Complete minus Cholesterol-free, greater than 0 enhanced anti-cancer activity, about 0 neutral, below 0 antagonists): −0.60
Cholesterol-free ([1]; NCI-H292 cells in cholesterol-free media without statin): 1.466
Complete ([1]; NCI-H292 cells in complete media): 0.8611
Cholesterol-free media + simvastatin (0.04 μM) [2, 6]: 0.7423
Complete Media [2, 7]: 0.6072
Difference [2, 8]: −0.14

C[C@@H]1C[C@H]2[C@@H]3C[C@H](F)C4=CC(=O)C=C[C@]4(C)[C@@]3(F)[C@@H](O)C[C@]2(C)[C@@]1(OC(=O)c1ccco1)C(=O)SCF [Fluticasone furoate]
Cholesterol-free [1, 16]: 1.047
Complete ([1]; NCI-H292 cells, complete media): 0.6144
Difference [1, 19]: −0.43
Cholesterol-free media + simvastatin (0.04 μM) [2, 20]: 0.7104
Complete Media [2, 21]: 0.7486
Difference [2, 22]: 0.04

CC(C)n1c(/C=C/C(O)CC(O)CC(=O)O)c(-c2ccc(F)cc2)c2ccccc21 (centres unmarked) [Fluvastatin (sodium)]
Difference [1, 9]: −0.22
Cholesterol-free [1, 16]: 0.3896
Complete ([1]; NCI-H292 cells, complete media): 0.168
Cholesterol-free media + simvastatin (0.04 μM) [2, 6]: 0.3266
Complete Media [2, 7]: 0.199
Difference [2, 8]: −0.13
